Among the data in patent US10336702B2, “Pharmaceutically active compounds” (BERGENBIO ASA, priority 2015, dated 2019) are IC50 values, retold here.

The target of one assay is T1, p-Akt1 in LNCaP cells (Homo sapiens, UniProt P31749).
T1 construct: SureFire assays to detect cellular p-Akt1, p-Akt2 and p-Akt3 levels in WM115 cells (Akt2/3) and LNCaP cells (Akt1); endogenous in cells; host or cells: LNCaP (ECACC 89110211)
Nature of the assay: Phospho-Akt cellular SureFire assay, p-Akt1 in LNCaP cells. The assay is classed as cell-based. The following applies: read-out: Biological Assay 2 IC50 (nM) Akt1 LNCaP. In outline:
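Phospho-Thr308 Akt1 detected by AlphaScreen SureFire proximity beads in LNCaP lysates after 15 min compound treatment at 37 °C in 0.1% FBS medium, unstimulated, 0.3% DMSO. Cells plated at 5×10^4/well overnight; IC50 from a 4-parameter equation.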

The next assay concerns the target T2, p-Akt3 in WM115 cells (Homo sapiens, UniProt Q9Y243).
T2 construct: SureFire assays to detect cellular p-Akt1, p-Akt2 and p-Akt3 levels in WM115 cells (Akt2/3) and LNCaP cells (Akt1); endogenous in cells; host or cells: WM115 (ECACC 91061232), insulin-stimulated
Nature of the assay: Phospho-Akt cellular SureFire assay, p-Akt3 in WM115 cells. Type of assay: cell-based. The following applies: insulin stimulated, read-out: Biological Assay 2 IC50 (nM) Akt3 WM115. In outline:
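pThr308-Akt3 in lysates was quantified by bead-proximity SureFire detection, pairing a phospho-specific antibody with a total Akt3 antibody. Before lysis, WM115 cells in 0.1% FBS medium were treated for 15 min at 37 °C with compound (final DMSO 0.3%), following a 10 min stimulation with 100 nM insulin. IC50 was obtained by 4-parameter fitting.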

The target of another assay is T3, p-Akt2 in WM115 cells (Homo sapiens, UniProt P31751).
T3 construct: SureFire assays to detect cellular p-Akt1, p-Akt2 and p-Akt3 levels in WM115 cells (Akt2/3) and LNCaP cells (Akt1); endogenous in cells; host or cells: WM115 (ECACC 91061232), insulin-stimulated
Description: Phospho-Akt cellular SureFire assay, p-Akt2 in WM115 cells. Type of assay: cell-based. The note with it: insulin stimulated, read-out: Biological Assay 2 IC50 (nM) Akt2 WM115. The method in brief: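 Readout is a bead-proximity SureFire assay pairing a pThr308 Akt antibody with a total Akt2 antibody, lysate and beads incubated 2 h plus 2 h at room temperature in the dark. Before lysis, serum-starved WM115 cells received 100 nM insulin (10 min), then test compound (15 min, 0.3% DMSO); IC50 by 4-parameter equation.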

A further assay concerns the target T4, Akt3 (Homo sapiens, UniProt Q9Y243).
T4 construct: unspecified tag, removed (detagged) (cleaved yes); purchased SignalChem and Proteros (Akt3); Merck Millipore (PDK1) 14-452 (PDK1); none given for Akt3
Description: Akt activation assay (PDK1-mediated activation, LANCE Ultra crosstide TR-FRET), Akt3. The assay is classed as biochemical. The note with it: read-out: Biological Assay 1 IC50 (nM) Akt3. In outline: (§1)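 Two-step cascade format: Akt1, Akt2 or Akt3 phosphorylates Ulight-crosstide (100 nM) only after activation by 5 nM PDK1 in presence of PtdIns(3,4,5)P3 vesicles and 100 μM ATP. Product quantified by Eu-antibody TR-FRET after 30 min reaction.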

In the next assay the target is T5, Akt1 (Homo sapiens, UniProt P31749).
T5 construct: unspecified tag, removed (detagged) (cleaved yes); purchased SignalChem and Proteros (Akt1); Merck Millipore (PDK1) 14-452 (PDK1); none given for Akt1
Nature of the assay: Akt activation assay (PDK1-mediated activation, LANCE Ultra crosstide TR-FRET), Akt1. The note with it: read-out: Biological Assay 1 IC50 (nM) Akt1. Type of assay: biochemical. In outline: as §1

For a further assay, the target named is T6, Akt2 (Homo sapiens, UniProt P31751).
T6 construct: unspecified tag, removed (detagged) (cleaved yes); purchased SignalChem and Proteros (Akt2); Merck Millipore (PDK1) 14-452 (PDK1); none given for Akt2
Nature of the assay: Akt activation assay (PDK1-mediated activation, LANCE Ultra crosstide TR-FRET), Akt2. The assay is classed as biochemical. The following applies: read-out: Biological Assay 1 IC50 (nM) Akt2. In outline: as §1

T5 sequence (P31749 whole entry): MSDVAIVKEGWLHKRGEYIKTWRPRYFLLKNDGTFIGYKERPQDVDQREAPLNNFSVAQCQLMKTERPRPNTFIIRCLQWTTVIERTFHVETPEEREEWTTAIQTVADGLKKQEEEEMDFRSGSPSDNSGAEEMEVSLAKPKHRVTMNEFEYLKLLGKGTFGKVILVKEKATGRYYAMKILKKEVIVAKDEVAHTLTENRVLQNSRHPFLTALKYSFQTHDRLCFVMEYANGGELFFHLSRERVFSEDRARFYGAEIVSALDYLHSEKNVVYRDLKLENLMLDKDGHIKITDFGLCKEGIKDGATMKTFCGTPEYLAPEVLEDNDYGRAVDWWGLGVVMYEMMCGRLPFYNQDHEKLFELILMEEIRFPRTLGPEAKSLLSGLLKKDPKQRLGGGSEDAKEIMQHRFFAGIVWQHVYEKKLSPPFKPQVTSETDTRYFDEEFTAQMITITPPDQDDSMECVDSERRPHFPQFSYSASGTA
T1 sequence (P31749 whole entry): as above
T3 sequence (P31751 whole entry): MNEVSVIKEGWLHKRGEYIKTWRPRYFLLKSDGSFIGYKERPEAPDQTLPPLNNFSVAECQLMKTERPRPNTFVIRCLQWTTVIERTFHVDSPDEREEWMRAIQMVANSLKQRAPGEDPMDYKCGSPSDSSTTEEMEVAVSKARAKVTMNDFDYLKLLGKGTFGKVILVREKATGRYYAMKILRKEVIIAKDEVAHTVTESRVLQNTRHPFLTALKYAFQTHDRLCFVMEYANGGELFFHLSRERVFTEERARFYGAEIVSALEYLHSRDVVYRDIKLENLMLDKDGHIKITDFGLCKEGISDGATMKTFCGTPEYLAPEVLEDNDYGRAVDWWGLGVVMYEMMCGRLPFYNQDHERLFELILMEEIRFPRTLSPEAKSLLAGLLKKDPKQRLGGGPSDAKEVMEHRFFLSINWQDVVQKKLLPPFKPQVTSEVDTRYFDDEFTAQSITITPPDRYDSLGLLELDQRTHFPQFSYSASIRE
T6 sequence (P31751 whole entry): as above
T4 sequence (Q9Y243 whole entry): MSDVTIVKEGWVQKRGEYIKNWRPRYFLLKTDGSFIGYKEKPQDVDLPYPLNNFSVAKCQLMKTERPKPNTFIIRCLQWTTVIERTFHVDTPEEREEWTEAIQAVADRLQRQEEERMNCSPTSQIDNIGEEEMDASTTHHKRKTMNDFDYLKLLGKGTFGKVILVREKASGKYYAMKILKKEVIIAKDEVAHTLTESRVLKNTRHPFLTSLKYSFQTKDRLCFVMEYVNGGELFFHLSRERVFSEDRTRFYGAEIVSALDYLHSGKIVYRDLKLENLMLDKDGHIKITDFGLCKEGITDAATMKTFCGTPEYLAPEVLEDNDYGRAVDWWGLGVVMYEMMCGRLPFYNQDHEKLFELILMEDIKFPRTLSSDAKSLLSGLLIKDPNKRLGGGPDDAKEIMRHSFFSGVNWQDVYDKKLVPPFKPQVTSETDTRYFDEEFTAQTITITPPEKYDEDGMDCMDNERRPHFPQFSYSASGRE
T2 sequence (Q9Y243 whole entry): as above

On to `CC(=O)N[C@H]1CC[C@H](CC(=O)Nc2cnc(-c3ccc([C@H](N)C(F)F)cc3)c(-c3ccccc3)c2)CC1` [Example A12, 2-(trans-4-acetamidocyclohexyl)-N-(6-(4-((S)-1-amino-2,2-difluoroethyl)phenyl)-5-phenylpyridin-3-yl)acetamide], for which the IC50 was above 20000 nM on p-Akt1 in LNCaP cells; 590 nM at p-Akt3 in WM115 cells; 24000 nM at p-Akt2 in WM115 cells; 4500 nM on Akt3; above 30000 nM at Akt1; 16000 nM on Akt2.
Consider `NC1(c2ccc(-c3ncc(NC(=O)C[C@H]4CC[C@H](N5CCCCC5=O)CC4)cc3-c3ccsc3)cc2)CCC1` [Example A14, N-(6-(4-(1-aminocyclobutyl)phenyl)-5-(thiophen-3-yl)pyridin-3-yl)-2-(trans-4-(2-oxopiperidin-1-yl)cyclohexyl)acetamide], for which the IC50 on p-Akt1 in LNCaP cells is above 30000 nM; on p-Akt3 in WM115 cells, 80 nM; at p-Akt2 in WM115 cells, 3200 nM; on Akt3, 170 nM; at Akt1, above 30000 nM; at Akt2 it was 1800 nM.
As for `C[C@]1(O)C[C@@](N)(c2ccc(-c3ncc(NC(=O)C[C@H]4CC[C@H](N5CCOCC5)CC4)cc3-c3ccccc3)cc2)C1` [Example A15, N-(6-(4-(trans-1-amino-3-hydroxy-3-methylcyclobutyl)phenyl)-5-phenylpyridin-3-yl)-2-(trans-4-morpholinocyclohexyl)acetamide], the IC50 at p-Akt1 in LNCaP cells worked out at 760 nM; on p-Akt3 in WM115 cells it was 48 nM; on p-Akt2 in WM115 cells, 810 nM; at Akt3, 290 nM; on Akt1 it was 260 nM; on Akt2 it was 350 nM.
As to `CC(C)(N)c1ccc(-c2ncc(NC(=O)C[C@H]3CC[C@H](N4CCOCC4)CC3)cc2-c2ccccc2)cc1` [Example A18, N-(6-(4-(2-aminopropan-2-yl)phenyl)-5-phenylpyridin-3-yl)-2-(trans-4-morpholinocyclohexyl)acetamide], the IC50 was above 27000 nM on p-Akt1 in LNCaP cells; 270 nM on p-Akt3 in WM115 cells; 7900 nM at p-Akt2 in WM115 cells; 6300 nM at Akt3; above 30000 nM on Akt1; 25000 nM on Akt2.
With `CC(=O)N[C@H]1CC[C@H](CC(=O)Nc2cnc(-c3ccc(C(C)(C)N)cc3)c(-c3ccccc3)c2)CC1` [Example A19, 2-(trans-4-acetamidocyclohexyl)-N-(6-(4-(2-aminopropan-2-yl)phenyl)-5-phenylpyridin-3-yl)acetamide], the concentration for half-maximal inhibition (IC50) at p-Akt1 in LNCaP cells was above 30000 nM; on p-Akt3 in WM115 cells, 1800 nM; at p-Akt2 in WM115 cells, above 30000 nM; on Akt3, 110 nM; on Akt1 it was above 45000 nM; at Akt2, above 50000 nM.
As for `CC(C)(N)c1ccc(-c2ncc(NC(=O)C[C@H]3CC[C@H](NC(=O)C4CC4)CC3)cc2-c2ccccc2)cc1` [Example A20, N-(trans-4-(2-((6-(4-(2-aminopropan-2-yl)phenyl)-5-phenylpyridin-3-yl)amino)-2-oxoethyl)cyclohexyl)cyclopropane-carboxamide], the IC50 on p-Akt1 in LNCaP cells was above 30000 nM; on p-Akt3 in WM115 cells, 200 nM; at p-Akt2 in WM115 cells, 5400 nM; on Akt3, 55 nM; at Akt1 it was above 36000 nM; at Akt2, 2300 nM.
With `CN([C@H]1CC[C@H](CC(=O)Nc2cnc(-c3ccc(C(C)(C)N)cc3)c(-c3ccsc3)c2)CC1)S(C)(=O)=O` [Example A24, N-(6-(4-(2-aminopropan-2-yl)phenyl)-5-(thiophen-3-yl)pyridin-3-yl)-2-(trans-4-(N-methylmethylsulfonamido)cyclo-hexyl)acetamide], the IC50 on p-Akt1 in LNCaP cells was above 30000 nM; on p-Akt3 in WM115 cells, 510 nM; at p-Akt2 in WM115 cells it was 8900 nM; at Akt3, 2000 nM; at Akt1, above 30000 nM; on Akt2 it was 9600 nM.
As to `CN([C@H]1CC[C@H](CC(=O)Nc2cnc(-c3ccc(C(C)(C)N)cc3)c(-c3ccccc3)c2)CC1)S(C)(=O)=O` [Example A25, N-(6-(4-(2-aminopropan-2-yl)phenyl)-5-phenylpyridin-3-yl)-2-(trans-4-(N-methylmethylsulfonamido)cyclo-hexyl)acetamide], the IC50 is above 15000 nM at p-Akt1 in LNCaP cells; 260 nM on p-Akt3 in WM115 cells; 5400 nM at p-Akt2 in WM115 cells; 560 nM on Akt3; above 30000 nM on Akt1; 5100 nM at Akt2.
As for `CN([C@H]1CC[C@H](CC(=O)Nc2cnc(-c3ccc(C(C)(C)N)cc3)c(-c3ccccc3F)c2)CC1)S(C)(=O)=O` [Example A26, N-(6-(4-(2-aminopropan-2-yl)phenyl)-5-(2-fluorophenyl)pyridin-3-yl)-2-(trans-4-(N-methylmethylsulfonamido)cyclo-hexyl)acetamide], the IC50 at p-Akt1 in LNCaP cells was above 30000 nM; at p-Akt3 in WM115 cells it was 390 nM; on p-Akt2 in WM115 cells, 7000 nM; at Akt3 it was 740 nM; on Akt1 it was above 30000 nM; on Akt2, 3300 nM.
For the compound `COC(=O)N(C)[C@H]1CC[C@H](CC(=O)Nc2cnc(-c3ccc(C(C)(C)N)c(F)c3)c(-c3ccccc3)c2)CC1` [Example A28, Methyl (trans-4-(2-((6-(4-(2-aminopropan-2-yl)-3-fluorophenyl)-5-phenylpyridin-3-yl)amino)-2-oxoethyl)cyclohexyl)(methyl)carbamate], the IC50 at p-Akt1 in LNCaP cells was above 30000 nM; on p-Akt3 in WM115 cells it was 1500 nM; at p-Akt2 in WM115 cells, above 20000 nM; on Akt3, 5900 nM; on Akt1 it was above 30000 nM; at Akt2, above 30000 nM.
As for `CN(C(=O)C1CC1)[C@H]1CC[C@H](CC(=O)Nc2cnc(-c3ccc(C(C)(C)N)cc3)c(-c3ccccc3)c2)CC1` [Example A29, N-(trans-4-(2-((6-(4-(2-aminopropan-2-yl)phenyl)-5-phenylpyridin-3-yl)amino)-2-oxoethyl)cyclohexyl)-N-methylcyclopropanecarboxamide], the IC50 on p-Akt1 in LNCaP cells is above 28000 nM; at p-Akt3 in WM115 cells it was 150 nM; at p-Akt2 in WM115 cells it was 5800 nM; on Akt3, 490 nM; on Akt1, above 30000 nM; at Akt2 it was 5700 nM.
Regarding `CC(C)(C)CC(=O)N[C@H]1CC[C@H](CC(=O)Nc2cnc(-c3ccc(C(C)(C)N)cc3)c(-c3ccccc3)c2)CC1` [Example A37, N-(trans-4-(2-((6-(4-(2-aminopropan-2-yl)phenyl)-5-phenylpyridin-3-yl)amino)-2-oxoethyl)cyclohexyl)-3,3-dimethylbutanamide], the IC50 on p-Akt1 in LNCaP cells is above 30000 nM; on p-Akt3 in WM115 cells, 340 nM; on p-Akt2 in WM115 cells, 8700 nM; on Akt3, 61 nM; at Akt1, above 30000 nM; at Akt2, 3500 nM.
Take `CC(=O)N[C@H]1CC[C@H](CC(=O)Nc2cnc(-c3ccc(C4(N)CCC4)cc3)c(-c3ccccc3)c2)CC1` [Example A38, 2-(trans-4-acetamidocyclohexyl)-N-(6-(4-(1-aminocyclobutyl)phenyl)-5-phenylpyridin-3-yl)acetamide]: the IC50 on p-Akt1 in LNCaP cells was above 5700 nM; on p-Akt3 in WM115 cells, 120 nM; on p-Akt2 in WM115 cells, 1600 nM; on Akt3, 18 nM; at Akt1, 10000 nM; on Akt2, 190 nM.
In the case of `CCCC(=O)N[C@H]1CC[C@H](CC(=O)Nc2cnc(-c3ccc(C4(N)CC4)cc3)c(-c3ccccc3)c2)CC1` [Example A41, N-(trans-4-(2-((6-(4-(1-aminocyclopropyl)phenyl)-5-phenylpyridin-3-yl)amino)-2-oxoethyl)cyclohexyl)butyramide], the IC50 on p-Akt1 in LNCaP cells turned out to be 3600 nM; on p-Akt3 in WM115 cells, 59 nM; on p-Akt2 in WM115 cells it was 840 nM; at Akt3, 75 nM; on Akt1 it was 11000 nM; on Akt2 it was 370 nM.
